Data published in publication PMC9781916, “Antipsychotic- and Anxiolytic-like Properties of a Multimodal Compound JJGW08 in Rodents” (International Journal of Molecular Sciences, 2022).

Assays:
5-HT1A receptors = system: 5-HT1A receptors; parameters: method as in doi:10.1016/j.molstruc.2022.134585; details: cited from earlier work
mice [1] = assay: Marble burying test in mice; type: in vivo
Procedure: Figure 3 The effect of JJGW08 and aripiprazole on the number of buried marbles by mice. Mice were placed individually in cages with a 5 cm bedding layer, where 20 glass balls were placed. The number of buried marbles after 30 min of the test was counted. JJGW08 was administered intraperitoneally (ip) 30 min before the test. The control group received 0.9% NaCl solution (ip) or 1% Tween (ip) for aripiprazole. Values are expressed as means ± SD in the case of one-way ANOVA (aripiprazole) or median with interquartile range in the case of Kruskal–Wallis test (JJGW08), n = 8–10 mice per group. Statistical analysis: one-way ANOVA (Newman–Keuls post hoc), and Kruskal–Wallis test (Dunn post hoc), * p < 0.05, ** p < 0.01, *** p < 0.001.
The test was conducted according to the method described by Broekkamp et al. with minor modifications. Mice were placed individually in plastic cages, identical to their home cages, that contained a layer of bedding and 20 glass balls (1.6 cm in diameter) arranged in a pattern 4 × 5. After 30 min of the experiment, the mice were removed from the cages, and the number of balls buried to at least 2/3 of their size was counted.

[2] = molecular target: human serotonin 5-HT7 receptor (Homo sapiens, UniProt P34969); assay: Functional assay (cAMP, TR-FRET) in CHO-K1 cells, 5-HT7 receptor
Procedure: Test and reference compounds were dissolved in DMSO at a concentration of 1 mM. Serial dilutions were prepared in a 96-well microplate in assay buffer, and 8 to 10 concentrations were tested. […] A functional assay based on cells expressing the human 5-HT7 receptor was performed according to the previously described protocol [16, 45]. CHO-K1 cells were transfected with a beta-lactamase (bla) reporter gene under the control of the cyclic AMP response element (CRE) (Life Technologies, Carlsbad, CA, USA).

mice [3] = assay: Rotarod test in mice; type: in vivo; details: for Animals That Fell from Rotating Rod: 30 min before test; for Time before Animals Fell: max 60 s, mean ± SD
Procedure: Mice were trained on the rotarod apparatus (May Commat RR0711, Ankara, Turkey; rod diameter: 2 cm) for 3 consecutive days. During each training session, animals were placed for 3 min on the rotating rod (24 rpm, constant speed) with unlimited trials. The experiment was performed 24 h after the last training session. On the test day, mice were injected with studied compounds and, 30 min later, placed on the rotarod. The criterion of motor impairments was the inability of the animal to remain on the rotating rod for 60 s.

5-HT2A receptors = system: 5-HT2A receptors; parameters: method as in doi:10.1016/j.molstruc.2022.134585; details: cited from earlier work
rats = assay: Open field test after MK-801 administration in rats (MK-801-induced hyperlocomotion); type: in vivo; details: doses 1–30 mg/kg ip, MK-801 0.3 mg/kg ip
Procedure: Figure 4 The effect of JJGW08 and clozapine on MK-801-induced hyperlocomotion in rats. After the habituation period (30 min, 24 h before the test), locomotor activity was measured individually for each animal in the special apparatus. The walked distance (cm) was monitored at 10-min intervals for 30 min, using a computerized system that tracked the animals’ movement and behavior. JJGW08 and clozapine were administered intraperitoneally (ip) 30 or 60 min before the test, respectively, while MK-801 (0.3 mg/kg) was administered ip 15 min before the start of the experiment. The control group received 0.9% NaCl solution (ip) (or 1% Tween (ip) for clozapine) and MK-801 (0.3 mg/kg, ip). Values are expressed as mean ± SD, n = 7–8 rats per group. Statistical analysis: one-way ANOVA (Newman–Keuls post hoc) * p < 0.05, ** p < 0.01, *** p < 0.001.
The experiment was evaluated according to the method described earlier. It was performed in a soundproof chamber with a 30-min habituation period 24 h before the procedure. The open field apparatus consisted of four black, octagonal, stainless steel arenas (diameter: 80 cm) with 30 cm high walls. Each arena was divided into a peripheral and central sector. The peripheral sector was defined as the region within 20 cm from the walls. The approximate light intensity was 15 lx in the central point of the arena and 4 lx close to its walls.
Individual rats were placed in the central part of the open field and allowed to explore the whole arena for 30 min under dim light (approximately 10 lx) and continuous white noise (65 dB). Forward locomotion (cm/30 min) was registered in 10-min intervals for 30 min and analyzed with the aid of a computerized video tracking system (Videomot, TSE, Bad Homburg, Germany). The arenas were cleaned between tests with 20% (v/v) alcohol and allowed to dry.
The tested compound was administered ip 30 min before the experiment at the dose range of 0.3–30.0 mg/kg, and MK-801 (0.3 mg/kg,) was administered ip 15 min before the procedure. […]

mice [4] = assay: Catalepsy bar test in mice; type: in vivo
Procedure: Catalepsy was assessed using the bar method described by Ueki et al. with minor modifications [48, 49]. The front paws of the mice were placed on a cylindrical metal bar located 4 cm above the tabletop’s surface, while the hind paws remained on the tabletop. The time in which the animal held both paws on the bar was measured at 30, 60, and 120 min after the administration of the tested compound, with a maximum measurement time of 60 s. Each of the measurements consisted of placing the animal’s paws on the bar three times unless the mouse was on it for 60 s; then, no further trial was performed.
The minimum cataleptogenic dose was defined as the lowest dose inducing a mean catalepsy score of ≥1 at 30, 60, or 120 min post-treatment. The tested compound was administered ip at the dose range of 5–20 mg/kg.

human D2 receptor = molecular target: T1, human D2 receptor (Homo sapiens, UniProt P14416); assay: Functional assay (aequorin, calcium mobilization) in CHO-K1 cells, D2 receptor; type: cell-based
T1 construct: host or cells: CHO-K1
Procedure: Tested and reference compounds were dissolved in dimethyl sulfoxide (DMSO) at a concentration of 10 mM. Serial dilutions were prepared in a 96-well microplate in assay buffer, and 8 to 10 concentrations were tested. […] The assay was executed according to the previously described protocol [45]. After thawing, cells were transferred to assay buffer (DMEM/HAM’s F12 with 0.1% protease-free BSA) and centrifuged. The cell pellet was resuspended in assay buffer, and coelenterazine h was added at final concentrations of 5 µM. The cell suspension was incubated at 16 °C (or 21 °C), protected from light with constant agitation for 16 h (or 4 h), and then diluted with assay buffer to the concentration of 100,000 cells/mL (or 250,000 cells/mL). After 1 h of incubation, 50 µL of the cell’s suspension was dispensed using automatic injectors built into the radiometric and luminescence plate counter MicroBeta2 LumiJET (PerkinElmer, Waltham, NA, USA) into white opaque 96-well microplates preloaded with test compounds. Immediate light emission generated following calcium mobilization was recorded for 30 s. In antagonist mode, after 25–30 min of incubation, the reference agonist was added to the above assay mix, and light emission was re-recorded. […] IC50 and EC50 values were calculated.

D2 receptors = system: D2 receptors; parameters: method as in doi:10.1016/j.molstruc.2022.134585; details: cited from earlier work
[5] = 5-HT7, antagonist mode, 10 nM serotonin as reference agonist
[6] = D2, antagonist mode, 30 nM apomorphine as reference agonist

human serotonin 5-HT7 receptor, sequence (P34969 whole entry): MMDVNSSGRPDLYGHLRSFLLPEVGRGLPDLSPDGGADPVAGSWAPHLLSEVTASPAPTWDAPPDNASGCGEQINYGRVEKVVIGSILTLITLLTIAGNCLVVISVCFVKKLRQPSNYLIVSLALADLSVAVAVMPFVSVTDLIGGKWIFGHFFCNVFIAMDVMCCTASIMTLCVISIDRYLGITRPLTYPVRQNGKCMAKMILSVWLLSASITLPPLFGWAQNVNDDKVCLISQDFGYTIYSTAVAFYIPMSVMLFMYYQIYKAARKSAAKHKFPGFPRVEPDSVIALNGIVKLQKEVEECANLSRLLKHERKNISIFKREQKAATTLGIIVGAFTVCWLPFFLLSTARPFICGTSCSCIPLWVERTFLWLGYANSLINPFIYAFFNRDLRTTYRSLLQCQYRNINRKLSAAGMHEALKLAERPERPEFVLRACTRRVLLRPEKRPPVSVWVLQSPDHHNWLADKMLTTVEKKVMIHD
T1 sequence (P14416 whole entry): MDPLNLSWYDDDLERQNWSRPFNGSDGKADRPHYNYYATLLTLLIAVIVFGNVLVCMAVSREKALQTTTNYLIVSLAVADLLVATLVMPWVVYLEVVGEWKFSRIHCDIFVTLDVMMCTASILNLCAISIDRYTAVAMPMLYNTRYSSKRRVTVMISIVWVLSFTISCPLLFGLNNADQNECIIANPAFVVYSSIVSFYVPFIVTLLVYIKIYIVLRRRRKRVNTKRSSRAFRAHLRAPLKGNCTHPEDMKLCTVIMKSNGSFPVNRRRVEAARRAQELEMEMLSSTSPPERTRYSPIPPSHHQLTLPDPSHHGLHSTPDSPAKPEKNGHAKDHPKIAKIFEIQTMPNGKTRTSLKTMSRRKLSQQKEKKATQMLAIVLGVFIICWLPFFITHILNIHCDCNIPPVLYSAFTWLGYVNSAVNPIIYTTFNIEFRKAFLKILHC

COc1ccccc1N1CCN(CCCCCOc2ccccc2C(N)=O)CC1.Cl [JJGW08, 2-{5-[4-(2-metoksyfenylo)piperazin-1-ylo]pentoxy}benzamide hydrochloride]
affinity (in words) (5-HT1A receptors): high affinity | reduction of the number of buried marbles (mice [1]; 1.25 mg/kg ip): 65% | reduction of the number of buried marbles (mice [1]; 2.5 mg/kg ip): 84% | Agonist Mode Emax% ([2]; 5-HT7, agonist mode): 1% | Antagonist Mode Emax% [2, 5]: 4% | Antagonist Mode pIC50 ± Range [2, 5]: 6.4 ± 0.1 | antagonistic properties (in words) ([2]; 5-HT7 functional assay): very weak antagonistic properties | Kb ([2]; read-out: Antagonist Mode Kb, 5-HT7, antagonist mode, Cheng equation): 0.19 µM | TD50 relative to the lowest antipsychotic-like dose (mice [3]): 121 fold | Animals That Fell from Rotating Rod (mice [3]; 10 mg/kg ip): 2/8 | Time before Animals Fell (mice [3]; 10 mg/kg ip): 58 ± 4 s | Animals That Fell from Rotating Rod (mice [3]; 20 mg/kg ip): 4/8 | Time before Animals Fell (mice [3]; 20 mg/kg ip): 41 ± 24 s | Animals That Fell from Rotating Rod (mice [3]; 30 mg/kg ip): 6/8 | Time before Animals Fell (mice [3]; 30 mg/kg ip): 20 ± 25 s | TD50 (mice [3]; ip, dose at which 50% of the animals could not stay on the rotating rod): 18 (11–29) mg/kg | affinity (in words) (5-HT2A receptors): moderate affinity | reduction of MK-801-induced hyperlocomotion in the open field (rats): 36–82% | Mean Score (catalepsy) (mice [4]; 5 mg/kg ip, 30 min): 0.0 | Mean Score (catalepsy) (mice [4]; 5 mg/kg ip, 60 min): 0.2 | Mean Score (catalepsy) (mice [4]; 5 mg/kg ip, 120 min): 0.2 | Mean Score (catalepsy) (mice [4]; 10 mg/kg ip, 30 min): 0.7 | Mean Score (catalepsy) (mice [4]; 10 mg/kg ip, 60 min): 0.9 | Mean Score (catalepsy) (mice [4]; 10 mg/kg ip, 120 min): 1.4 | cataleptogenic dose relative to the lowest antipsychotic-like dose (mice [4]; 10 mg/kg vs. 0.15 mg/kg): 67 fold | Mean Score (catalepsy) (mice [4]; 20 mg/kg ip, 30 min): 2.1 | Mean Score (catalepsy) (mice [4]; 20 mg/kg ip, 60 min): 2.1 | Mean Score (catalepsy) (mice [4]; 20 mg/kg ip, 120 min): 1.5 | minimum (lowest) cataleptogenic dose (mice [4]; ip, lowest dose with mean catalepsy score ≥1 at 30, 60 or 120 min): 10 mg/kg | Agonist Mode Emax% (human D2 receptor; D2, agonist mode): 13% | Antagonist Mode Emax% (human D2 receptor; [6]): 0% | Antagonist Mode pIC50 ± Range (human D2 receptor; [6]): 7.9 ± 0.0 | Kb (human D2 receptor; D2, antagonist mode, Cheng equation): 0.002 µM | antagonistic properties (in words) (human D2 receptor; D2 functional assay): strong antagonistic properties | affinity (in words) (D2 receptors): high affinity
